Laboratory results published in patent publication US7655392B2, “Quenching methods for red blood cell inactivation process” (priority 2004, dated 2010).

System: red blood cells
Test: Gel card agglutination with rabbit anti-acridine sera
Assay type: cell-based
Method: The reduction in modification of red blood cells in the methods of the present invention can be evaluated by several assays. In one assay, rabbit polyclonal sera that is reactive with acridine is produced by injecting New Zealand White rabbits with an acridine compound conjugated to KLH.
This is conjugated to KLH by adding 10 μL of the compound (10 mM in de-ionized water) to 990 μL of a buffered solution of KLH (10 mg/mL in 50 mM Phosphate, 150 mM NaCl, PBS pH=7.2 with proprietary stabilizer, Pierce Cat # 77600) and incubating at room temperature for over 20 hours. Following this incubaton, the conjugated KLH is isolated from the unreacted S-197 and S-197 by-products by passing through a desalting column (e.g. D-salt columns, Pierce) and eluting in PBS buffer. The colored fractions of the solutions are then combined and the KLH conjugates are characterized by the ratio of absorbance at 210 and 410 nm. The acridine-KLH conjugate solutions are mixed with Complete Freund's Adjuvant for intramuscular injection into the rabbits at multiple sites to immunize the rabbits. […] The resulting solution can be assayed for agglutination by passing through a Buffer Gel Card (Micro Typing Systems, Pompano Beach, Fla.). The gel cards are designed to allow non-agglutinated red blood cells to pass through, while cells agglutinated by reaction with the rabbit sera and cross reacting with the anti-rabbit antibody will remain at the top of the gel. The cards are scored as 0, 1+, 2+, 3+, or 4+, where 0 indicates all cells are intact and are at the bottom of the gel, while 4+ indicates complete agglutination, with all cells at the top of the gel.
In these, the appropriate amount of 600 mM stock was added, mixed with an appropriate volume of 8% dextrose to provide the same volume addition to each RBC sample where in one study, with varied glutathione concentrations, the pH was measured after adding glutathione and after adding PIC-1. […] Similar samples were also assessed for the inactivation of S. epidermidis. […] For gel card analysis, after incubation, the RBC were washed in BBS and were diluted in BBS to a final hematocrit of 4%. A 25 μL aliquot of each was mixed with 15 μL of rabbit polyclonal anti-acridine sera diluted either 1:4 or 1:100 in BBS and the mixture was incubated at 37° C. for 30 minutes. The cells were subsequently washed with 1.5 mL BBS. […]
Heterophile antibodies are naturally occurring antibodies that recognize RBC from another species in a non-specific fashion. […] All samples were mixed with quencher first, then PIC-1 at 0.2 mM.
The standard condition was included, i.e. 0.2 mM PIC-1 and 2 mM acidic glutathione added together.

O=C(CCNc1c2ccccc2nc2ccccc12)OCCN(CCCl)CCCl [PIC-1]
Gel card score (Table 13: 5 mM GSH 2eq/15 mM Cys 1eq, 0.2 mM PIC-1, blood sample 1, sera 1:100): 0 | Gel card score (Table 13: 5 mM GSH 2eq/15 mM Cys 1eq, 0.2 mM PIC-1, blood sample 2, sera 1:4): 3 | Gel card score (Table 13: 5 mM GSH 2eq/15 mM Cys 1eq, 0.2 mM PIC-1, blood sample 2, sera 1:100): 0 | Gel card score (Table 13: 5 mM GSH 2eq/15 mM Cys 2eq, 0.2 mM PIC-1, blood sample 1, sera 1:4): 1 | Gel card score (Table 13: 5 mM GSH 2eq/15 mM Cys 2eq, 0.2 mM PIC-1, blood sample 1, sera 1:100): 0 | Gel card score (Table 13: 5 mM GSH 2eq/15 mM Cys 2eq, 0.2 mM PIC-1, blood sample 2, sera 1:4): 1 | Gel card score (Table 13: 5 mM GSH 2eq/15 mM Cys 2eq, 0.2 mM PIC-1, blood sample 2, sera 1:100): 0 | Gel card score (Table 13: 10 mM GSH 2eq/10 mM Cys 1eq, 0.2 mM PIC-1, blood sample 1, sera 1:4): 3 | Gel card score (Table 13: 10 mM GSH 2eq/10 mM Cys 1eq, 0.2 mM PIC-1, blood sample 1, sera 1:100): 0 | Gel card score (Table 13: 10 mM GSH 2eq/10 mM Cys 1eq, 0.2 mM PIC-1, blood sample 2, sera 1:4): 3 | Gel card score (Table 13: 10 mM GSH 2eq/10 mM Cys 1eq, 0.2 mM PIC-1, blood sample 2, sera 1:100): 0 | Gel card score (Table 13: 10 mM GSH 2eq/10 mM Cys 2eq, 0.2 mM PIC-1, blood sample 1, sera 1:4): 2 | Gel card score (Table 13: 10 mM GSH 2eq/10 mM Cys 2eq, 0.2 mM PIC-1, blood sample 1, sera 1:100): 0 | Gel card score (Table 13: 10 mM GSH 2eq/10 mM Cys 2eq, 0.2 mM PIC-1, blood sample 2, sera 1:4): 2 | Gel card score (Table 13: 10 mM GSH 2eq/10 mM Cys 2eq, 0.2 mM PIC-1, blood sample 2, sera 1:100): 0 | Gel card score (Table 13: 15 mM GSH 2eq/5 mM Cys 1eq, 0.2 mM PIC-1, blood sample 1, sera 1:4): 4 | Gel card score (Table 13: 15 mM GSH 2eq/5 mM Cys 1eq, 0.2 mM PIC-1, blood sample 1, sera 1:100): 0 | Gel card score (Table 13: 15 mM GSH 2eq/5 mM Cys 1eq, 0.2 mM PIC-1, blood sample 2, sera 1:4): 3 | Gel card score (Table 13: 15 mM GSH 2eq/5 mM Cys 1eq, 0.2 mM PIC-1, blood sample 2, sera 1:100): 0 | Gel card score (Table 13: 15 mM GSH 2eq/5 mM Cys 2eq, 0.2 mM PIC-1, blood sample 1, sera 1:4): 4 | Gel card score (Table 13: 15 mM GSH 2eq/5 mM Cys 2eq, 0.2 mM PIC-1, blood sample 1, sera 1:100): 0 | Gel card score (Table 13: 15 mM GSH 2eq/5 mM Cys 2eq, 0.2 mM PIC-1, blood sample 2, sera 1:4): 3 | Gel card score (Table 13: 15 mM GSH 2eq/5 mM Cys 2eq, 0.2 mM PIC-1, blood sample 2, sera 1:100): 0 | Gel card score (Table 13: 20 mM Cys 1eq, 0.2 mM PIC-1, blood sample 1, sera 1:4): 0 | Gel card score (Table 13: 20 mM Cys 1eq, 0.2 mM PIC-1, blood sample 1, sera 1:100): 0 | Gel card score (Table 13: 20 mM Cys 1eq, 0.2 mM PIC-1, blood sample 2, sera 1:4): 3 | Gel card score (Table 13: 20 mM Cys 1eq, 0.2 mM PIC-1, blood sample 2, sera 1:100): 0 | Gel card score (Table 13: 20 mM Cys 2eq, 0.2 mM PIC-1, blood sample 1, sera 1:4): 0 | Gel card score (Table 13: 20 mM Cys 2eq, 0.2 mM PIC-1, blood sample 1, sera 1:100): 0 | Gel card score (Table 13: 20 mM Cys 2eq, 0.2 mM PIC-1, blood sample 2, sera 1:4): 1 | Gel card score (Table 13: 20 mM Cys 2eq, 0.2 mM PIC-1, blood sample 2, sera 1:100): 0 | Gel card score (Table 13: 20 mM GSH 2eq, 0.2 mM PIC-1, blood sample 1, sera 1:4): 4 | Gel card score (Table 13: 20 mM GSH 2eq, 0.2 mM PIC-1, blood sample 1, sera 1:100): 0 | Gel card score (Table 13: 20 mM GSH 2eq, 0.2 mM PIC-1, blood sample 2, sera 1:4): 4 | Gel card score (Table 13: 20 mM GSH 2eq, 0.2 mM PIC-1, blood sample 2, sera 1:100): 0 | Gel card score (Table 14: 5 mM CysGly 1 eq. base, 0.2 mM PIC-1, 1:4 dilution of serum): 4 | Gel card score (Table 14: 5 mM CysGly 1 eq. base, 0.2 mM PIC-1, 1:100 dilution of serum): 2 | Gel card score (Table 14: 5 mM CysGly, 0.2 mM PIC-1, 1:4 dilution of serum): 4 | Gel card score (Table 14: 5 mM CysGly, 0.2 mM PIC-1, 1:100 dilution of serum): 0 | Gel card score (Table 14: 10 mM CysGly, 0.2 mM PIC-1, 1:4 dilution of serum): 4 | Gel card score (Table 14: 10 mM CysGly, 0.2 mM PIC-1, 1:100 dilution of serum): 0 | Gel card score (Table 14: […] CysGly 1 eq. base, 0.2 mM PIC-1, 1:4 dilution of serum): 4 | Gel card score (Table 14: […] CysGly 1 eq. base, 0.2 mM PIC-1, 1:100 dilution of serum): 4 | Gel card score (Table 14: […] CysGly, 0.2 mM PIC-1, 1:4 dilution of serum): 4 | Gel card score (Table 14: […] CysGly, 0.2 mM PIC-1, 1:100 dilution of serum): 3 | Gel card score (another study, rabbit sera 1:4: 10 mM neutralized (2 eq.) glutathione, 0.2 mM PIC-1): 4+ | Gel card score (another study, rabbit sera 1:4: 15 mM neutralized (2 eq.) glutathione, 0.2 mM PIC-1): 3+ | Gel card score (another study, rabbit sera 1:4: 20 mM neutralized (2 eq.) glutathione, 0.2 mM PIC-1): 1+ | Gel card score (another study, rabbit sera 1:4: standard condition): 4+ | Gel card score (another study, rabbit sera 1:100: 10, 15, 20 mM neutralized glutathione, all samples): 0
